The record followed here is the supplement of paper PMC4862054.

The structures appear in SMILES notation.

The subject of assay [1] is MDA-MB-453. Briefly: normalised viability (% of control), CellTiter-Blue; higher = more viable cells (about 100 = DMSO control). The following applies: incubation time: 72 h. As to the method:
(§1)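 DSRT, CellTiter-Blue viability, 72 h incubation. Signal is normalised to DMSO and benzethonium chloride controls. Value is the normalised response at dose 7.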
(In general: Resazurin is reduced to fluorescent resorufin, in cell work by metabolically active cells.)

For a further assay, the system named is DU-4475. Described as above. The following applies: incubation time: 72 h. As to the method:
as §1

The subject of assay [2] is HDQ-P1. The assay is described as above. The following applies: incubation time: 72 h. The procedure: as §1
For the next assay, the system named is CAL-148. The assay is described as above. The following applies: incubation time: 72 h. The procedure: as §1
For assay [3], the system named is CAL-51. Described as above. The following applies: incubation time: 72 h. As to the method: as §1
The subject of assay [4] is CAL-85-1. Described as above. The following applies: incubation time: 72 h. The procedure: as §1
For assay [5], the system named is MDA-MB-453. The following applies: 72 h. In outline: (§2)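 Seeding of breast cancer cell lines (20 µl suspension) was done into 384-well plates pre-loaded with compound at 5 concentrations, 10-fold apart, covering a compound-specific 10,000-fold range. The plates were incubated for 72 h, read for CellTox Green fluorescence (485/520 nm), and then read for CellTiter-Glo luminescence after 10 min at room temperature. Every plate was normalised to 0.1 % DMSO and a positive kill control. Curve fitting gave the EC50, censored at the top concentration.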

The test system of assay [6] is MDA-MB-468. The following applies: 72 h. In outline:
(§3)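 Compound dissolved in 5 µl medium was placed in 384-well plates before 20 µl of breast cancer cell suspension was added, and the plates were incubated for 72 h. Cells then received 2.5 µl CellTiter-Blue for 2 h at 37 °C, and fluorescence was read at 560/590 nm. EC50 values come from percent-inhibition dose-response fits that were censored at the highest concentration, with plates normalised to vehicle and a positive kill control and rows with a zero drug sensitivity score excluded.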

In a further assay the test system is MDA-MB-231. Briefly: drug sensitivity score (DSS), CellTox Green (DSS (AUC-based score)); higher = stronger drug effect (viability inhibition or cytotoxicity); extreme values may be limits of the assay. The following applies: incubation time: 72 h. In outline: (§4)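 Using 20 µl of cell suspension per well, breast cancer cell lines were seeded into 384-well plates pre-loaded with compound at 5 concentrations in 10-fold steps across a compound-specific 10,000-fold range. Incubation lasted 72 h, after which CellTox Green fluorescence at 485/520 nm and then CellTiter-Glo luminescence, following 10 min at room temperature, were recorded. Each plate was normalised to 0.1 % DMSO and a positive kill control before the drug sensitivity score was derived from the area under the fitted dose-response curve.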

Assay [7] relates to MFM-223. The assay is described as above. The following applies: incubation time: 72 h. In outline:
as §4

Assay [8] deals with BT-549. The description is as above. The following applies: incubation time: 72 h. The method in brief:
as §4

The subject of assay [9] is CAL-85-1. The description is as above. The following applies: incubation time: 72 h. In outline:
as §4

For assay [10], the system named is CAL-51. The following applies: 72 h. The method in brief:
as §2

For assay [11], the system named is BT-549. The following applies: 72 h. The method in brief:
as §2

Assay [12] deals with HCC1937. The following applies: 72 h. In outline:
as §3

Assay [13] has as its system BT-549. The following applies: 72 h. The method in brief: as §3
The source holds these as a separate data set.

Assay [14] relates to HCC1937. The following applies: 72 h. In outline:
as §2
The source holds these as a separate data set.

Assay [15] concerns MFM-223. The following applies: 72 h. The method in brief: as §2
In assay [16] the test system is HDQ-P1. The following applies: 72 h. In outline: as §2
Assay [17] has as its system MDA-MB-468. The following applies: 72 h. In outline: as §2
The source holds these as a separate data set.

Another assay has as its system MDA-MB-436. The following applies: 72 h. In outline:
as §2

With `C=CCn1c(=O)c2cnc(Nc3ccc(N4CCN(C)CC4)cc3)nc2n1-c1cccc(C(C)(C)O)n1` [MK1775] (1000 nM), the normalised viability was 23.2% with MDA-MB-453 [1]; 32.2% in the assay with DU-4475; 47.8% with HDQ-P1 [2]; 9.04% with CAL-148; 16.6% in the assay with CAL-51 [3]; 40.5% in the assay on CAL-85-1 [4].
`CC(O)(CS(=O)(=O)c1ccc(F)cc1)C(=O)Nc1ccc(C#N)c(C(F)(F)F)c1` (configuration not stated) [Bicalutamide]: in the assay on MDA-MB-453 [5], the “EC50, CellTiter-Glo” value was > 10000 nM. In the assay with MDA-MB-468 [6], the “EC50, CellTiter-Blue viability” value was > 10000 nM. The drug sensitivity score in the assay on MDA-MB-231, with MFM-223 [7], in the assay on BT-549 [8] and in the assay with CAL-85-1 [9] was 0 throughout.
As to `C=CCN(/C=C1/C(=O)O[C@H](COC)[C@@]2(C)C1=C(O)C(=O)C1=C2[C@H](OC(C)=O)C[C@]2(C)C(=O)CC[C@@H]12)CC=C` [Sonolisib], the “EC50, CellTiter-Glo” value with CAL-51 [10] amounted to 390 nM. The drug sensitivity score worked out at 0 in the assay with MDA-MB-231, 0 in the assay on MFM-223 [7], 0 with BT-549 [8] and 2.28 in the assay with CAL-85-1 [9].
On to `CC[C@H](CO)Nc1nc(NCc2ccccc2)c2ncn(C(C)C)c2n1` [Seliciclib], for which the “EC50, CellTiter-Glo” value in the assay with CAL-51 [10] was found to be 595 nM. The drug sensitivity score in the assay on MDA-MB-231 came to 0; in the assay with MFM-223 [7], 1.03; in the assay with BT-549 [8], 0; in the assay on CAL-85-1 [9], 0.
Regarding `O=C(O)CNC(=O)c1c(O)c2ccccc2n(Cc2ccccc2)c1=O` [IOX-2], the “EC50, CellTiter-Glo” value in the assay with BT-549 [11] is > 50000 nM; in the assay on CAL-51 [10], 1020 nM. Also, the drug sensitivity score with MDA-MB-231 was 0; in the assay with MFM-223 [7], 0; with BT-549 [8], 2.91; in the assay with CAL-85-1 [9], 0.
For the molecule `CCNC(=O)CCC/C=C\C[C@@H]1[C@@H](/C=C/[C@@H](O)CCc2ccccc2)[C@H](O)C[C@@H]1O` [Bimatoprost] (550 nM), the normalised viability with MDA-MB-453 [1] came out at 91.1%; in the assay on DU-4475, 104%; with HDQ-P1 [2], 93.3%; with CAL-148 it was 95.9%; in the assay on CAL-51 [3] it was 118%; with CAL-85-1 [4], 94.2%.
For the molecule `CNC(=O)c1ccccc1Sc1ccc2c(/C=C/c3ccccn3)n[nH]c2c1` [Axitinib] (1000 nM), the normalised viability in the assay on MDA-MB-453 [1] amounted to 60.4%; with DU-4475, 109%; in the assay on HDQ-P1 [2] it was 76.8%; with CAL-148, 97.5%; with CAL-51 [3] it was 88.7%; in the assay with CAL-85-1 [4], 76.9%.
Take `Cc1cn(-c2cc(NC(=O)c3ccc(C)c(Nc4nccc(-c5cccnc5)n4)c3)cc(C(F)(F)F)c2)cn1` [Nilotinib]: the entries for the “EC50, CellTiter-Glo” value with BT-549 [11] and in the assay on CAL-51 [10] were > 10000 nM and 32.6 nM, respectively. In addition, the figures for the “EC50, CellTiter-Blue viability” value in the assay with HCC1937 [12] and with BT-549 [13] were 117 nM and 2590 nM, respectively. The drug sensitivity score in the assay on MDA-MB-231 is 3.55; with MFM-223 [7] it was 0; with BT-549 [8], 1.71; in the assay with CAL-85-1 [9], 0.
As for `CO[C@@]12[C@H](COC(N)=O)C3=C(C(=O)C(C)=C(N)C3=O)N1C[C@@H]1N[C@@H]12` [Mitomycin C] (1000 nM), the normalised viability was 91.4% in the assay on MDA-MB-453 [1]; 95.6% with DU-4475; 88.9% in the assay with HDQ-P1 [2]; 96.3% with CAL-148; 108% in the assay with CAL-51 [3]; 77.2% in the assay with CAL-85-1 [4].
With `CC(O)(CS(=O)(=O)c1ccc(F)cc1)C(=O)Nc1ccc(C#N)c(C(F)(F)F)c1` (configuration not stated) [Bicalutamide] (1000 nM), the normalised viability in the assay on MDA-MB-453 [1] was determined as 102%; with DU-4475, 90.1%; with HDQ-P1 [2] it was 91.4%; with CAL-148, 102%; in the assay on CAL-51 [3], 108%; with CAL-85-1 [4] it was 91.1%.
Consider `COc1ccc(S(=O)(=O)Nc2cccnc2Nc2ccc(O)cc2)cc1` [ABT-751] (1000 nM), for which the normalised viability in the assay on MDA-MB-453 [1] amounted to 25.2%; in the assay with DU-4475, 66.1%; in the assay with HDQ-P1 [2] it was 51.3%; with CAL-148, 52.5%; in the assay with CAL-51 [3], 39.7%; in the assay on CAL-85-1 [4] it was 32.3%.
For `CC(C)C[C@H](NC(=O)[C@@H](COC(C)(C)C)NC(=O)[C@H](Cc1ccc(O)cc1)NC(=O)[C@H](CO)NC(=O)[C@H](Cc1c[nH]c2ccccc12)NC(=O)[C@H](Cc1cnc[nH]1)NC(=O)[C@@H]1CCC(=O)N1)C(=O)N[C@@H](CCCNC(=N)N)C(=O)N1CCC[C@H]1C(=O)NNC(N)=O` [Goserelin], the drug sensitivity score with MDA-MB-231, in the assay on BT-549 [8] and in the assay with CAL-85-1 [9] was 0 throughout.
For the molecule `CC(C)n1cnc2c(NCCc3ccc(O)cc3)nc(-c3csc4ccccc34)nc21` [StemRegenin 1], the “EC50, CellTiter-Glo” value in the assay with HCC1937 [14] is > 10000 nM; in the assay with MDA-MB-453 [5], > 10000 nM; with MFM-223 [15] it was 2020 nM; with HDQ-P1 [16] it was 4790 nM; in the assay on MDA-MB-468 [17], 9610 nM; in the assay with MDA-MB-436 it was 7630 nM. Also, the “EC50, CellTiter-Glo” value with BT-549 [11] was found to be 565 nM. The drug sensitivity score with MDA-MB-231 stood at 0; in the assay with MFM-223 [7] it was 5.31; in the assay on BT-549 [8], 0; with CAL-85-1 [9], 0.
As for `CC1(C)CCC(c2ccc(Cl)cc2)=C(CN2CCN(c3ccc(C(=O)NS(=O)(=O)c4ccc(N[C@H](CCN5CCOCC5)CSc5ccccc5)c(S(=O)(=O)C(F)(F)F)c4)cc3)CC2)C1` [Navitoclax] (1000 nM), the normalised viability in the assay on MDA-MB-453 [1] amounted to 75.5%; in the assay on DU-4475, 40.2%; in the assay with HDQ-P1 [2], 68.2%; with CAL-148 it was 80.1%; with CAL-51 [3], 97.6%; in the assay with CAL-85-1 [4], 81.2%.
In the case of `C/C(=C\c1csc(C)n1)[C@@H]1C[C@@H]2O[C@]2(C)CCC[C@H](C)[C@H](O)[C@@H](C)C(=O)C(C)(C)[C@@H](O)CC(=O)N1` [Ixabepilone] (100 nM), the normalised viability with MDA-MB-453 [1] was 78.5%; in the assay with DU-4475, 93.7%; in the assay with HDQ-P1 [2], 78.1%; in the assay with CAL-148, 86.5%; in the assay on CAL-51 [3], 108%; in the assay on CAL-85-1 [4], 80.5%.
For `CN(C)C(=N)NC(=N)N` [Metformin], the “EC50, CellTiter-Glo” value in the assay on MDA-MB-468 [17] is > 100000 nM; in the assay with CAL-51 [10] it was 360 nM. Further, the drug sensitivity score in the assay on MDA-MB-231, in the assay with MFM-223 [7] and in the assay with CAL-85-1 [9] was 0 each time.
